Assay [1] concerns L1210 tumor cells. Description: Survival of BDF1 mice inoculated with 1×10^6 L1210 cells, cis-platin with and without methionine-enkephalin. In kind it is in vivo, mouse.
Procedure: In order to test for any synergistic effect of using an endogenous enkephalin with a known chemo-therapeutic agent, a study involving the inoculation of groups of mice with massive doses (1×10^6) of L1210 tumor cells was performed in a manner analogous to the previous examples transferred in RPMI 1640 at pH 7.
Assay [2] deals with phenylalanyl-t RNA synthetase. Particulars: Laidow et al, J.B.C. 255 (1980); cited from earlier work.

Here are results for 2 compounds from patent US4757049A, “Process for using endogenous enkephalins and endorphins to stimulate the immune system of patients with aids” (TNI Pharmaceuticals, Inc., priority 1986, dated 1988).

On to `N.N.[Cl][Pt][Cl]` [Cis-platin, cis-platin], for which the “Median Day of Death ED50” value in assay [1] (1×10^6 cells, cis-platin 2 mg/Kg, Met-enkephalin 30 mg/Kg s.c.) came out at 10 days; in assay [1] (1×10^6 cells, cis-platin 4 mg/Kg, Met-enkephalin 30 mg/Kg s.c.) it was 10 days; in assay [1] (1×10^6 cells, cis-platin 8 mg/Kg, Met-enkephalin 30 mg/Kg s.c.) it was 12 days. Moreover, the “dead/tested, cumulative” value in assay [1] (1×10^6 cells, cis-platin 2 mg/Kg, Met-enkephalin 30 mg/Kg s.c., day 9) is 3/20; in assay [1] (1×10^6 cells, cis-platin 8 mg/Kg single dose, Met-enkephalin 30 mg/Kg s.c., day 9), 2/20; in assay [1] (cis-platin 2 mg/Kg, Met-enkephalin 30 mg/Kg s.c., day 10) it was 13/20; in assay [1] (cis-platin 2 mg/Kg, Met-enkephalin 30 mg/Kg s.c., day 11) it was 14/20; in assay [1] (cis-platin 2 mg/Kg, Met-enkephalin 30 mg/Kg s.c., day 12) it was 15/20; in assay [1] (cis-platin 2 mg/Kg, Met-enkephalin 30 mg/Kg s.c., day 13), 17/20. Besides, the “dead/tested, cumulative” value is listed as 19/20 in assay [1] (cis-platin 2 mg/Kg, Met-enkephalin 30 mg/Kg s.c., day 14); 10/20 in assay [1] (cis-platin 4 mg/Kg, Met-enkephalin 30 mg/Kg s.c., day 11); 15/20 in assay [1] (cis-platin 4 mg/Kg, Met-enkephalin 30 mg/Kg s.c., day 12); 19/20 in assay [1] (cis-platin 4 mg/Kg, Met-enkephalin 30 mg/Kg s.c., day 13); 20/20 in assay [1] (cis-platin 4 mg/Kg, Met-enkephalin 30 mg/Kg s.c., day 15); 4/20 in assay [1] (cis-platin 8 mg/Kg, Met-enkephalin 30 mg/Kg s.c., day 12). In addition, the “dead/tested, cumulative” value in assay [1] (cis-platin 8 mg/Kg, Met-enkephalin 30 mg/Kg s.c., day 13) is 7/20; in assay [1] (cis-platin 8 mg/Kg, Met-enkephalin 30 mg/Kg s.c., day 14) it was 12/20; in assay [1] (cis-platin 8 mg/Kg, Met-enkephalin 30 mg/Kg s.c., day 15) it was 16/20; in assay [1] (cis-platin 8 mg/Kg, Met-enkephalin 30 mg/Kg s.c., day 16), 18/20; in assay [1] (cis-platin 8 mg/Kg, day 18), 19/20; in assay [1] (cis-platin 8 mg/Kg, day 20) it was 20/20.
As for beta-endorphin, the “effect on phenylalanyl-t RNA synthetase” value in assay [2] is “inhibit”.
